{"source": "patent US9585933B2", "about": "“Therapeutic use of peptide inhibitors of NADPH oxidase; aerosolization as a delivery mechanism” (University of Pittsburgh—Of the Commonwealth System of …, priority 2011, dated 2017)", "target": "T1, Nox4 oxidase (COS-Nox4 lysate: hNox4, p22phox) (Homo sapiens, UniProt Q9NPH5)", "T1 construct": "expressed in transfected cells; host or cells: COS-22 cells (COS 7 with p22phox), stably transfected; cell lysate used", "T1 sequence (Q9NPH5 1-578)": "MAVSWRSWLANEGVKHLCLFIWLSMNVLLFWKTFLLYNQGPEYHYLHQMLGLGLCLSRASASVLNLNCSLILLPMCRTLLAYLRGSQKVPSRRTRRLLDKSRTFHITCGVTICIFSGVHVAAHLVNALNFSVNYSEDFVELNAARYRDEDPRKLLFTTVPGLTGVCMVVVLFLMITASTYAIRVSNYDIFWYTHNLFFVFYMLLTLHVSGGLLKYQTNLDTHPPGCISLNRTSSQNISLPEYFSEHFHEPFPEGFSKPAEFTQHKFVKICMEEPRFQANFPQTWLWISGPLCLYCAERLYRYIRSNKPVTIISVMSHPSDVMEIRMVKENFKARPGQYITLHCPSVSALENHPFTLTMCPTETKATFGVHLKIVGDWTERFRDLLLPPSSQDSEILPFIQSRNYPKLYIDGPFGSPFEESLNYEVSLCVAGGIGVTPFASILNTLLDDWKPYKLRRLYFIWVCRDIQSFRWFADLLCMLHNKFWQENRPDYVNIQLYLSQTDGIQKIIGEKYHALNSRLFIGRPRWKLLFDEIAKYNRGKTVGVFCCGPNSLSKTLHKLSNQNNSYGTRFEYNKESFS", "T1 sequence (P13498 2-195 partner limits assumed)": "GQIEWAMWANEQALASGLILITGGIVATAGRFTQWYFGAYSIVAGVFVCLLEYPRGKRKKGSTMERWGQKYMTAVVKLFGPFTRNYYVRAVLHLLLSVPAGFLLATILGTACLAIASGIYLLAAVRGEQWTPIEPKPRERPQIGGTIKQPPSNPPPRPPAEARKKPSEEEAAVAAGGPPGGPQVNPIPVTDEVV", "assay": "Amplex Red assay, H2O2 production in COS-Nox4 lysates", "type": "biochemical", "details": "for rate of H2O2 production, Amplex red oxidation: 0 μM control 80.4±3.1", "description": "To test this hypothesis, the inhibitory activity of Nox2ds was assessed in cell-free assays using reconstituted systems expressing either Nox1, 2 or 4 oxidase. Nox 2 oxidase was recapitulated by stably transfecting COS 7 cells with Nox2, p22phox, p47phox, and p67phox (aka COS-Nox2). Nox1 oxidase was obtained by transfecting COS 7 cells with Nox1, p22phox, NOXO1 and NOXA1 (COS-Nox1), and Nox 4 oxidase was regenerated by transfection of COS 7 cells with Nox4 and p22phox. […] Our new data support selectivity of Nox2ds peptide in differentiating the contribution of Nox2 vs. Nox1 and Nox4 NADPH oxidase and its potential clinical use in ameliorating cardiopulmonary diseases.\nCell transfection was carried out using Lipofectamine LTX and Plus reagent (Invitrogen), according to the manufacturer's instructions. COS-22 cells were transiently cotransfected with pcDNA 3.1-hNox1, pCMVsport 6-hNOXA1, and pcDNA3.1-hNoxO1 (COS-Nox1/NOXO1/NOXA1 cells). Cells were used 24 h after transfection. For stable transfection of Nox4, COS-22 cells were transfected with pcDNA3.1/Hygro-hNox4 (COS-Nox4 cells). COS-Nox4 cells were selected in complete medium supplemented with 0.2 mg/ml hygromycin B and 1.8 mg/ml G418. Stable transfectants were maintained in culture under the same conditions. Adherent cells were harvested by incubating with 0.05% trypsin/EDTA for 5 min at 37° C. After addition of DMEM/10% FBS to neutralize the trypsin, the cells were pelleted by centrifugation at 1000 g for 5 min at 4° C. and used for the experiments.\nHydrogen peroxide (H2O2) generation was quantified in COS-Nox4 cell lysates by Amplex Red. H2O2-producing activity was quantified in […] using Amplex red. Briefly, COS-Nox4 cells (5×10^7 cells/nil) were disrupted in ice-cold disruption buffer (PBS containing 0.1 mM EDTA, 10% glycerol, protease inhibitor cocktail, and 0.1 mM PMSF) by freeze/thaw cycles as we described above. Incubation of COS-Nox4 cell lysate with Nox2ds was performed in assay buffer (25 mM Hepes, pH 7.4, containing 0.12 M NaCl, 3 mM KCl, 1 mM MgCl2, 0.1 mM Amplex red, and 0.32 U/ml HRP) for 5 min at room temperature on an orbital shaker (120 movements/min), before the addition of 36 μM NADPH, to initiate H2O2 production. […] Fluorescence measurements were made using a Biotek Synergy 4 hybrid multimode microplate reader with a 530/25-excitation and a 590/35-emission filter. A standard curve of known H2O2 concentrations was developed using the Amplex red assay (as per the manufacturer's instructions) and was used to quantify H2O2 production in the COS-Nox4 cell-free system. Nox4 activity was obtained by subtracting nontransfected COS-22 cell lysate activity from COS-Nox4 cell lysate activity. The reaction was monitored at room temperature for 10 min, and the emission increase was linear during this interval.\nH2O2 production was initiated by the addition of NADPH and measured by Amplex Red for 10 min.", "note": "Where no end group is shown, it is not given here."}
{"substance": "CSTRVRRQL-NH2 [Nox2ds, CSTRVRRQL]", "values": [{"measurement": "inhibition of COS-Nox4 lysate H2O2 production (in words)", "value": "did not inhibit"}, {"measurement": "rate of H2O2 production, Amplex red oxidation", "setting": "0.1 μM peptide", "value": "74.3±2.1 nmol H2O2/min/10^7 cell lysate equivalents"}, {"measurement": "rate of H2O2 production, Amplex red oxidation", "setting": "0.3 μM peptide", "value": "74.1±5.9 nmol H2O2/min/10^7 cell lysate equivalents"}, {"measurement": "rate of H2O2 production, Amplex red oxidation", "setting": "1 μM peptide", "value": "82.3±3.4 nmol H2O2/min/10^7 cell lysate equivalents"}, {"measurement": "rate of H2O2 production, Amplex red oxidation", "setting": "3 μM peptide", "value": "83.3±1.6 nmol H2O2/min/10^7 cell lysate equivalents"}]}
